Numbered stars: 1 amine (or outer) side, 2 acyl side, 3 side chain; on linkers, the order of the positions; unused ones are H or OH. Bridge positions count the residues as written; N and C are the ends. Ends that are not written are not given here. acetyl = K(acetyl): lysine side chain modified with a haloacetyl group whose halogen is replaced by the thiol of another residue, giving a thioether ring, O=C(C[*:1])[*:2]; COCH2 = acetyl group that carries the bridge
Tested on: Recombinant Human FGFR1 alpha (IIIc) Fc Chimera Protein
Assay: Binding affinity of enzymatically synthesized cyclic peptide to FGFR by ELISA
Settings: luminescence signal at reaction concentration 10 nmol/L, SEQ ID NO: 39 standardized to 1, enzyme synthesis product
Description: The binding affinity of the cyclic peptide to FGFR was evaluated using an ELISA method.
The binding affinity of the enzymatically synthesized cyclic peptide to FGFR was measured by evaluating the amount of the cyclic peptide bound to FGFR by ELISA.
First, 5 ng of Recombinant Human FGFR1 alpha (IIIc) Fc Chimera Protein CF (R&D systems, 658-FR-050) was immobilized in each well of a 96-well plate, and blocked with Pierce Protein-Free (PBS) Blocking Buffer (Thermo, 37572), and a cyclic peptide diluted with Can Get Signal Immunoreaction Enhancer Solution I (TOYOBO, NKB-101) was then added and reacted at room temperature for 3 hours. After washing with 0.05% Tween 20-containing phosphate buffered saline (PBS), an anti-Myc antibody (Cell Signaling, 14038S) diluted with Can Get Signal Immunoreaction Enhancer Solution II (TOYOBO, NKB-101) was added and reacted at room temperature for 2 hours. After washing with 0.05% Tween 20-containing PBS, SuperSignal ELISA Femto Substrate (Thermo, 37075) was added, and the luminescence amount was measured. The dose-response relationship was calculated from using the difference between the luminescence amount in the well in which FGFR was immobilized and the luminescence amount in the well in which FGFR was not immobilized, and the concentration of the cyclic peptide at the time of reaction, and the binding affinity to FGFR was evaluated according to the following evaluation criteria. The evaluation result preferably satisfies the evaluation criteria A, B, or C.
In a case where a value of a luminescence signal emitted by the cyclic peptide set forth in SEQ ID NO: 39 at a reaction concentration of 10 nmol/L is standardized to 1, evaluation criteria of the luminescence signal value emitted by the cyclic peptide at a reaction concentration of 10 nmol/L is as follows. • A: 0.7 or more • B: 0.5 or more and less than 0.7 • C: 0.1 or more and less than 0.5 • D: less than 0.1.

| Evaluation result of binding affinity to FGFR | Substance |
| --- | --- |
| A (0.7 or more) | 193 (HCSYERLQFHGHEAPFVVK(COCH2)V; thioether 2-19 via Ac) [compound 193] |
| B (0.5 or more and less than 0.7) | 237 (HK(COCH2)TWERLIFLGHLAPFWVCR; thioether 2-19 (inferred)) [compound 237] |
| A (0.7 or more) | 216 (HCSYERLQFHGHEAPFRVK(COCH2)N; thioether 2-19 via Ac; not fully specified) [compound 216] |
| B (0.5 or more and less than 0.7) | 298 (HCSYMRLQFHGHEAPFRVK(COCH2)V; thioether 2-19 (inferred)) [compound 298] |
| A (0.7 or more) | 153 (HCSYERLSFHGHEAPFRVK(COCH2)V; thioether 2-19 (inferred)) [compound 153] |
| C (0.1 or more and less than 0.5) | 114 (HCSYERLQFHGHEVPFRVK(COCH2)V; thioether 2-19 (inferred)) [compound 114] |
| A (0.7 or more) | 87 (HCFYERLQFHGHEAPFRVKV; not fully specified; Description of Artificial Sequence: Cyclic peptide) [compound 87] |
| B (0.5 or more and less than 0.7) | 325 (HCTWERLIFLGHIAPFWVK(COCH2)S; thioether 2-19 (inferred)) [compound 325] |
| C (0.1 or more and less than 0.5) | 280 (PCWTRVVLLHHYAPFWAK(COCH2)I; thioether 2-18 (inferred)) [compound 280] |
| A (0.7 or more) | 57 (HCAYERLQFHGHEAPFRVK(COCH2)V; thioether 2-19 (inferred)) [compound 57] |
| A (0.7 or more) | 146 (HCSYERLLFHGHEAPFRVK(COCH2)V; thioether 2-19 (inferred)) [compound 146] |
| C (0.1 or more and less than 0.5) | 53 (SCWYQPEWLGHHLPYLVK(COCH2)W; thioether 2-18 (inferred)) [compound 53] |
| A (0.7 or more) | 192 (HCSYERLQFHGHEAPFIVK(COCH2)V; thioether 2-19 via Ac) [compound 192] |
| A (0.7 or more) | 66 (HCSYERLQFHGHEAPFRVK(COCH2)A; thioether 2-19 (inferred)) [compound 66] |
| C (0.1 or more and less than 0.5) | 321 (HCTWERLIFLGHVAPFWVK(COCH2)R; thioether 2-19 (inferred)) [compound 321] |
| C (0.1 or more and less than 0.5) | 141 (HCSYEHLQFHGHEAPFRVK(COCH2)V; thioether 2-19 (inferred)) [compound 141] |
| B (0.5 or more and less than 0.7) | 198 (HCSYERLQFHGHEAPFQVK(COCH2)V; thioether 2-19 via Ac) [compound 198] |
| A (0.7 or more) | 127 (HCSYWRLQFHGHEAPFRVK(COCH2)V; thioether 2-19 (inferred)) [compound 127] |

The next lines start with the substance.

| Substance | Evaluation result of binding affinity to FGFR |
| --- | --- |
| 269 (VCYEQLVVWGHIAPFLTK(COCH2)H; thioether 2-18 (inferred)) [compound 269] | C (0.1 or more and less than 0.5) |
| 327 (HCSYERLIFHGHEAPFWVK(COCH2)V; thioether 2-19 (inferred)) [compound 327] | A (0.7 or more) |
| 230 (HK(COCH2)QWERLIFLGHIAPFWVCR; thioether 2-19 (inferred)) [compound 230] | B (0.5 or more and less than 0.7) |
| 330 (HCSYERLVFHGHIAPFWVK(COCH2)V; thioether 2-19 (inferred)) [compound 330] | A (0.7 or more) |
| 103 (HCSTERLQFHGHEAPFRVK(COCH2)V; thioether 2-19 (inferred)) [compound 103] | A (0.7 or more) |
| 72 (FCSYERLQFHGHEAPFRVK(COCH2)V; thioether 2-19 (inferred)) [compound 72] | A (0.7 or more) |
| 256 (NCWGYHYTIPFIK(COCH2)F; thioether 2-13 (inferred)) [compound 256] | B (0.5 or more and less than 0.7) |
| 331 (HCSYERLIFHGHLAPFWVK(COCH2)V; thioether 2-19 (inferred)) [compound 331] | A (0.7 or more) |
| 189 (HCSYERLQFHGHRAPFRVK(COCH2)V; thioether 2-19 via Ac) [compound 189] | A (0.7 or more) |
| 139 (HCSYEQLQFHGHEAPFRVK(COCH2)V; thioether 2-19 (inferred)) [compound 139] | B (0.5 or more and less than 0.7) |
| 370 (CYERLIFHGHEAPFWVK(COCH2)V; thioether 1-17) [compound 370] | A (0.7 or more) |
| 42 (RCWDQLTFYGHQAPFYVK(COCH2)G; thioether 2-18 (inferred)) [compound 42] | A (0.7 or more) |
| 240 (HK(COCH2)TWERLIFLGHIAPFHVCR; thioether 2-19 (inferred)) [compound 240] | A (0.7 or more) |
| 199 (HCSYERLQFHGHEAPFSVK(COCH2)V; thioether 2-19 via Ac) [compound 199] | B (0.5 or more and less than 0.7) |
| 229 (HK(COCH2)VWERLIFLGHIAPFWVCR; thioether 2-19 (inferred)) [compound 229] | B (0.5 or more and less than 0.7) |
| 182 (HCSYERLQFHGHYAPFRVK(COCH2)V; thioether 2-19 via Ac) [compound 182] | A (0.7 or more) |

| Substance | Evaluation result of binding affinity to FGFR |
| --- | --- |
| 133 (HCSYRRLQFHGHEAPFRVK(COCH2)V; thioether 2-19 (inferred)) [compound 133] | B (0.5 or more and less than 0.7) |
| 85 (HCIYERLQFHGHEAPFRVKV; not fully specified; Description of Artificial Sequence: Cyclic peptide) [compound 85] | A (0.7 or more) |
| 245 (WCQYVYLSHVAPFLVRK(COCH2)E; thioether 2-17 (inferred)) [compound 245] | C (0.1 or more and less than 0.5) |
| 249 (RCWKVLKVLGHRAPFLIAK(COCH2)Y; thioether 2-19 (inferred)) [compound 249] | C (0.1 or more and less than 0.5) |
| 271 (QCWSQVSTPWGHTAPFIFK(COCH2)D; thioether 2-19 (inferred)) [compound 271] | B (0.5 or more and less than 0.7) |
| 123 (HCSYIRLQFHGHEAPFRVK(COCH2)V; thioether 2-19 (inferred)) [compound 123] | B (0.5 or more and less than 0.7) |
| 228 (RK(COCH2)TWERLIFLGHIAPFWVCR; thioether 2-19 (inferred)) [compound 228] | C (0.1 or more and less than 0.5) |
| 91 (HCQYERLQFHGHEAPFRVK(COCH2)V; thioether 2-19 via acetyl; not fully specified; printed as H-(C)-QYERLQFHGHEAPFRV-(K(acetyl))-V) [compound 91] | A (0.7 or more) |
| 277 (QCYVQLYVWGHPAPFYWDK(COCH2)I; thioether 2-19 (inferred)) [compound 277] | C (0.1 or more and less than 0.5) |
| 278 (SCIVPLYIYGWRAPYWLK(COCH2)V; thioether 2-18 (inferred)) [compound 278] | C (0.1 or more and less than 0.5) |
| 318 (HCTWERLIFRGHIAPFWVK(COCH2)R; thioether 2-19 (inferred)) [compound 318] | C (0.1 or more and less than 0.5) |
| 75 (NCSYERLQFHGHEAPFRVK(COCH2)V; thioether 2-19 (inferred)) [compound 75] | A (0.7 or more) |
| 222 (HCSYERLQFHGHEAPFRVK(COCH2)R; thioether 2-19 (inferred)) [compound 222] | A (0.7 or more) |
| 349 (HCLEQLVYGGDTAPFWIVVFK(COCH2)D; thioether 2-21) [compound 349] | C (0.1 or more and less than 0.5) |
| 274 (QCYVQLYFWGHPAPFYWDK(COCH2)T; thioether 2-19 (inferred)) [compound 274] | C (0.1 or more and less than 0.5) |
| 365 (NCWGYTYIIPFNYISK(COCH2)T; thioether 2-16) [compound 365] | B (0.5 or more and less than 0.7) |

From patent US20260008818A1, “CYCLIC PEPTIDE OR SALT THEREOF, AND USES THEREOF” (FUJIFILM Corporation, priority 2023, published 2026)
